# Source: PMC10525927, “First Generation of Antioxidant Precursors for Bioisosteric Se-NSAIDs: Design, Synthesis, and In Vitro and In Vivo Anticancer Evaluation” (Antioxidants, 2023)
# Where two headings read alike, the source gives them in different places.
# Assays:
# [1] = tested on: MDA-MB-231 breast cancer cells; experiment: MTT cell viability assay, MDA-MB-231; format: cell-based; conditions: mean ± SD
# Procedure: (§1) The cell lines were purchased from the American Type Culture Collection (ATCC). The cancer cell lines DU-145, PC-3, T-47D, MDA-MB-231, H1299, and A549, and the non-tumorigenic cells (184B5 and BEAS-2B), were maintained in RPMI 1640 medium (Gibco, Alcobendas, Madrid, Spain) supplemented with 10% fetal bovine serum (FBS; Gibco) and 1% antibiotics (10.00 units/mL penicillin and 10.00 mg/mL streptomycin; Gibco). Colon cancer cells HT-29 and HCT-116 were cultured in McCoy’s 5A medium (Gibco) supplemented with 10% fetal bovine serum (FBS; Gibco) and 1% antibiotics (10.00 units/mL penicillin and 10.00 mg/mL streptomycin; Gibco). Cells were maintained in tissue culture flasks at 37 °C and 5% CO2. The culture medium was replaced every three days.
# (§2) The antiproliferative activity and selectivity in vitro of the Se-NSAID derivatives were determined by the (3-(4,5-dimethylthiazol-2-yl)-2,5-diphenyltetrazolium bromide) (MTT) assay. Compounds were dissolved in DMSO at a concentration of 0.01 M and serial dilutions were prepared. The Se-NSAID derivatives were tested at seven concentrations ranging between 1 and 100 µM in the colon (HT-29 and HCT-116), prostate (DU-145 and PC-3), breast (MDA-MB-231 and T-47D), and lung (H1299 and A549) cancer cell lines. The non-tumorigenic breast (184B5) and lung (BEAS-2B) cell lines were also tested to assess the selectivity of the compounds following the same procedure. A total of 1 × 10^4 cells were seeded per well in 96-well plates and incubated at 5% CO2 and 37 °C for 24 h. Then, cells were treated with either DMSO or increasing concentrations of the corresponding Se-NSAID derivatives for 48 h. A volume of 20 µL of MTT (5 mg/mL) was added to each well 2.5 h before the termination point. At the end of the experiment, the medium was removed, and the resultant formazan crystals formed by mitochondrial reduction of MTT were dissolved in 50 µL of DMSO. Absorbance was measured at 550 nm. IC50, GI50, TGI, and LC50 values were calculated using OriginPro version 8.5.1. software by nonlinear curve fitting. Selectivity indexes (SI) were calculated as the ratio of the IC50 values determined for the nonmalignant and the tumoral cells in the breast (IC50 (184B5)/IC50 (MDA-MB-231) and IC50 (184B5)/IC50 (T-47D)) and lung (IC50 (BEAS-2B)/IC50 (H1299) and IC50 (BEAS-2B)/IC50 (A549)) cell lines. Data were obtained from at least three independent experiments performed in triplicates.
# [2] = tested on: HCT-116 colon cancer cells; experiment: MTT cell viability assay, HCT-116; format: cell-based; conditions: mean ± SD
# Procedure: as §1, §2
# [3] = tested on: HT-29 colon cancer cells; experiment: MTT cell viability assay, HT-29; format: cell-based; conditions: mean ± SD
# Procedure: as §1, §2
# [4] = tested on: A549 lung cancer cells; experiment: MTT cell viability assay, A549; format: cell-based; conditions: mean ± SD
# Procedure: as §1, §2
# [5] = tested on: 184B5 non-tumorigenic breast (mammary gland) cells; experiment: MTT cell viability assay, 184B5; format: cell-based; conditions: mean ± SD; for IC50: nonmalignant breast cells
# Procedure: as §1, §2
# [6] = tested on: H1299 lung cancer cells; experiment: MTT cell viability assay, H1299; format: cell-based; conditions: mean ± SD
# Procedure: as §1, §2
# [7] = tested on: T-47D breast cancer cells; experiment: MTT cell viability assay, T-47D; format: cell-based; conditions: 48 h, mean ± SD
# Procedure: as §1, §2
# [8] = tested on: DU-145 prostate cancer cells; experiment: MTT cell viability assay, DU-145; format: cell-based; conditions: mean ± SD
# Procedure: as §1, §2
# [9] = tested on: PC-3 prostate cancer cells; experiment: MTT cell viability assay, PC-3; format: cell-based; conditions: 48 h, mean ± SD, Table S1
# Procedure: as §1, §2
# [10] = tested on: BEAS-2B non-tumorigenic lung (bronchial epithelium) cells; experiment: MTT cell viability assay, BEAS-2B; format: cell-based; conditions: 48 h, mean ± SD; for IC50: nonmalignant lung cells
# Procedure: as §1, §2
# [11] = tested on: A549 lung cancer cells; set-up: method as in PMID 26750401, PMID 32987314, PMID 33799070, PMID 36257283; conditions: MTT; parent NSAIDs for reference, some values obtained from the literature; cited from earlier work
# [12] = tested on: HT-29 colon cancer cells; set-up: method as in PMID 26750401, PMID 32987314, PMID 33799070, PMID 36257283; conditions: MTT; parent NSAIDs for reference, some values obtained from the literature; cited from earlier work
# [13] = tested on: MDA-MB-231 breast cancer cells; set-up: method as in PMID 26750401, PMID 32987314, PMID 33799070, PMID 36257283; conditions: MTT; parent NSAIDs for reference, some values obtained from the literature; cited from earlier work
# [14] = tested on: HCT-116 colon cancer cells; set-up: method as in PMID 26750401, PMID 32987314, PMID 33799070, PMID 36257283; conditions: MTT; parent NSAIDs for reference, some values obtained from the literature; cited from earlier work
# [15] = tested on: T-47D breast cancer cells; set-up: method as in PMID 26750401, PMID 32987314, PMID 33799070, PMID 36257283; conditions: MTT; parent NSAIDs for reference, some values obtained from the literature; cited from earlier work
# [16] = tested on: PC-3 prostate cancer cells; set-up: method as in PMID 26750401, PMID 32987314, PMID 33799070, PMID 36257283; conditions: MTT; parent NSAIDs for reference, some values obtained from the literature; cited from earlier work
# [17] = tested on: H1299 lung cancer cells; set-up: method as in PMID 26750401, PMID 32987314, PMID 33799070, PMID 36257283; conditions: MTT; parent NSAIDs for reference, some values obtained from the literature; cited from earlier work
# [18] = tested on: DU-145 prostate cancer cells; set-up: method as in PMID 26750401, PMID 32987314, PMID 33799070, PMID 36257283; conditions: MTT; parent NSAIDs for reference, some values obtained from the literature; cited from earlier work
# [19] = in vitro TGI concentration, 48 h, Table S1
# [20] = in vitro TGI concentration, Table S1
compound,measurement,setting,value
"CC(=O)Oc1ccccc1C(=O)[Se][Se]C(=O)c1ccccc1OC(C)=O [Compound 1, 2-Acetoxybenzoic diselenoperoxyanhydride]",IC50,"[1]; Homo sapiens, MDA-MB-231, 48 h",18.3 ± 6.9 µM
same,GI50,"[1]; Homo sapiens, MDA-MB-231, 48 h, Table S1",6.6 ± 2.2 µM
same,TGI MDA-MB-231,[1]; [19],15.3 ± 4.6 µM
same,IC50,[2]; 48 h,39.2 ± 7.3 µM
same,LD50 HCT-116,"[2]; 48 h, Table S1",88.0 ± 3.5 µM
same,IC50,"[2]; Homo sapiens, HCT-116, 48 h",~40 µM
same,GI50,"[2]; Homo sapiens, HCT-116, 48 h, Table S1",21 ± 4 µM
same,TGI HCT-116,[2]; [19],44.5 ± 7.1 µM
same,IC50,"[3]; Homo sapiens, HT-29, 48 h",6.6 ± 2.2 µM
same,GI50,"[3]; Homo sapiens, HT-29, 48 h, Table S1",3.9 ± 0.4 µM
same,TGI HT-29,[3]; [19],6.2 ± 1.9 µM
same,IC50,[4]; 48 h,7 ± 1.3 µM
same,LD50 A549,"[4]; 48 h, Table S1",74.6 ± 5.9 µM
same,IC50,"[4]; Homo sapiens, A549, 48 h",< 10 µM
same,GI50,"[4]; Homo sapiens, A549, 48 h, Table S1",> 100 µM
same,TGI A549,[4]; [19],26.2 ± 5.8 µM
same,LD50 184B5,"[5]; 48 h, Table S1",21.1 ± 3.9 µM
same,IC50,[5]; 48 h,14.4 ± 1.5 µM
same,GI50,"[5]; Homo sapiens, 184B5, 48 h, Table S1",7 ± 1.1 µM
same,IC50,"[5]; Homo sapiens, 184B5, 48 h",14 to 19 µM
same,TGI 184B5,[5]; [19],11.3 ± 1.4 µM
same,IC50,[6]; 48 h,8.6 ± 0.8 µM
same,IC50,"[6]; Homo sapiens, NCI-H1299, 48 h",< 10 µM
same,GI50,"[6]; Homo sapiens, NCI-H1299, 48 h, Table S1",7.7 ± 1.2 µM
same,TGI H1299,[6]; [19],9.4 ± 0.8 µM
same,LD50 T-47D,[7]; Table S1,6.0 ± 1.9 µM
same,IC50,"[7]; Homo sapiens, T47D",5.9 ± 1.4 µM
same,GI50,"[7]; Homo sapiens, T47D, Table S1",1.6 ± 0.3 µM
same,TGI T-47D,[7]; [20],2.9 ± 0.6 µM
same,IC50,[8]; 48 h,5 ± 0.1 µM
same,LD50 DU-145,"[8]; 48 h, Table S1",6.1 ± 0.7 µM
same,IC50,"[8]; Homo sapiens, DU-145, 48 h",< 10 µM
same,GI50,"[8]; Homo sapiens, DU-145, 48 h, Table S1",4.4 ± 0.5 µM
same,TGI DU-145,[8]; [19],5.1 ± 0.2 µM
same,GI50,[9],2.8 ± 0.2 µM
same,LD50 PC-3,[9],3.3 ± 0.4 µM
same,TGI PC-3,[9]; in vitro TGI concentration,3.0 ± 0.3 µM
same,LD50 BEAS-2B,[10]; Table S1,17.0 ± 5.7 µM
same,IC50,[10],18.5 ± 3 µM
same,GI50,"[10]; Homo sapiens, BEAS-2B, Table S1",3.9 ± 1.3 µM
same,IC50,"[10]; Homo sapiens, BEAS-2B",14 to 19 µM
same,TGI BEAS-2B,[10]; [20],8.4 ± 2.4 µM
"COc1ccc2cc([C@H](C)C(=O)O)ccc2c1 [Nap, naproxen]",IC50,[11],> 50 µM
same,IC50,[12],> 50 µM
same,IC50,[13],> 50 µM
same,IC50,[14],> 50 µM
same,IC50,[15],> 50 µM
same,IC50,[16],> 50 µM
same,IC50,[17],> 50 µM
same,IC50,[18],> 50 µM
